# Data published in PubChem BioAssay (NCI).
#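 Protocol summary: plate cells (96-well), add compound at 5 concentrations, incubate 48 h, interpolate endpoints linearly. GI50: concentration for 50% inhibition of growth. TGI marks complete inhibition of growth.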
# What was measured:
# Test in all cases: DTP human tumour cell line panel, 48 h
# [1] = system: SR leukemia
# [2] = system: OVCAR-3 ovarian
# [3] = system: RPMI-8226 leukemia
# [4] = system: COLO 205 colon
# [5] = system: NCI-H460 lung
# [6] = system: OVCAR-8 ovarian
# [7] = system: A498 renal
# [8] = system: MOLT-4 leukemia
# [9] = system: SF-268 CNS
# [10] = system: HL-60(TB) leukemia
# [11] = system: SF-539 CNS
# [12] = system: UACC-62 melanoma
# [13] = system: SW-620 colon
# [14] = system: ACHN renal
# [15] = system: BT-549 breast
# [16] = system: T-47D breast
# [17] = system: HCC-2998 colon
# [18] = system: HOP-92 NSCLC
# [19] = system: HT29 colon
# [20] = system: MALME-3M melanoma
# [21] = system: U251 CNS
# [22] = system: SK-MEL-2 melanoma
# [23] = system: OVCAR-4 ovarian
# [24] = system: SN12C renal
# [25] = system: TK-10 renal
# [26] = system: SK-MEL-28 melanoma
# [27] = system: NCI-H522 lung
# [28] = system: SK-MEL-5 melanoma
# [29] = system: PC-3 prostate
# [30] = system: RXF 393 renal
# [31] = system: K-562 leukemia
# [32] = system: DU-145 prostate
# [33] = system: NCI-H23 lung
# [34] = system: OVCAR-5 ovarian
# [35] = system: MCF7 breast
# [36] = system: SNB-75 CNS
# [37] = system: SNB-19 CNS
# [38] = system: UACC-257 melanoma
# [39] = system: HOP-62 NSCLC
# [40] = system: CCRF-CEM leukemia
# [41] = system: NCI-H226 lung
# [42] = system: SF-295 CNS
# [43] = system: HCT-15 colon
# [44] = system: EKVX NSCLC
# [45] = system: HCT-116 colon
# [46] = system: 786-0 renal
# [47] = system: A549 NSCLC
# [48] = system: NCI/ADR-RES ovarian
# [49] = system: MDA-MB-435
# [50] = system: IGROV1 ovarian
# [51] = system: KM12 colon
# [52] = system: M14 melanoma
# [53] = system: LOX IMVI melanoma
# [54] = system: SK-OV-3 ovarian
# [55] = system: MDA-MB-231 breast
# [56] = system: UO-31 renal
# [57] = system: HS 578T breast
smiles,measurement,setting,value
Clc1ccc2c(NCCCCNc3nc(N4CCOCC4)nc4ccccc34)ccnc2c1,GI50,[1],0.295 µM
same,TGI,[1],0.853 µM
same,GI50,[2],1.93 µM
same,TGI,[2],3.7 µM
same,GI50,[3],2.8 µM
same,TGI,[3],7.21 µM
same,GI50,[4],1.87 µM
same,TGI,[4],4.49 µM
same,GI50,[5],2.22 µM
same,TGI,[5],5.22 µM
same,GI50,[6],3.53 µM
same,TGI,[6],10.6 µM
same,GI50,[7],1.83 µM
same,TGI,[7],4.28 µM
same,GI50,[8],3.59 µM
same,TGI,[8],14 µM
same,GI50,[9],3.29 µM
same,TGI,[9],13.7 µM
same,GI50,[10],2.27 µM
same,TGI,[10],4.3 µM
same,GI50,[11],1.8 µM
same,TGI,[11],3.39 µM
same,GI50,[12],1.92 µM
same,TGI,[12],3.48 µM
same,GI50,[13],2.65 µM
same,TGI,[13],12.5 µM
same,GI50,[14],1.9 µM
same,TGI,[14],3.6 µM
same,GI50,[15],2.96 µM
same,TGI,[15],9.42 µM
same,GI50,[16],2.23 µM
same,TGI,[16],6.82 µM
same,GI50,[17],3.81 µM
same,TGI,[17],14 µM
same,GI50,[18],1.88 µM
same,TGI,[18],4.29 µM
same,GI50,[19],2.61 µM
same,TGI,[19],7.14 µM
same,GI50,[20],2.05 µM
same,TGI,[20],3.89 µM
same,GI50,[21],1.84 µM
same,TGI,[21],3.66 µM
same,GI50,[22],2.23 µM
same,TGI,[22],5.02 µM
same,GI50,[23],2.2 µM
same,TGI,[23],5.52 µM
same,GI50,[24],2.03 µM
same,TGI,[24],4.31 µM
same,GI50,[25],1.92 µM
same,TGI,[25],3.61 µM
same,GI50,[26],2.03 µM
same,TGI,[26],4.03 µM
same,GI50,[27],2.34 µM
same,TGI,[27],5.6 µM
same,GI50,[28],1.83 µM
same,TGI,[28],3.3 µM
same,GI50,[29],6.37 µM
same,TGI,[29],19.5 µM
same,GI50,[30],1.65 µM
same,TGI,[30],3.73 µM
same,GI50,[31],1.43 µM
same,TGI,[31],11.2 µM
same,GI50,[32],4.62 µM
same,TGI,[32],16.5 µM
same,GI50,[33],5.68 µM
same,TGI,[33],23.2 µM
same,GI50,[34],3.36 µM
same,TGI,[34],12 µM
same,GI50,[35],3.81 µM
same,TGI,[35],17.7 µM
same,GI50,[36],1.33 µM
same,TGI,[36],3.03 µM
same,GI50,[37],3.37 µM
same,TGI,[37],12.6 µM
same,GI50,[38],15.2 µM
same,TGI,[38],29.9 µM
same,GI50,[39],2.17 µM
same,TGI,[39],5.67 µM
same,GI50,[40],3.42 µM
same,TGI,[40],9.38 µM
same,GI50,[41],1.72 µM
same,TGI,[41],3.68 µM
same,GI50,[42],1.79 µM
same,TGI,[42],3.73 µM
same,GI50,[43],2.75 µM
same,TGI,[43],11.4 µM
same,GI50,[44],3.7 µM
same,TGI,[44],15.3 µM
same,GI50,[45],2.13 µM
same,TGI,[45],4.63 µM
same,GI50,[46],2.28 µM
same,TGI,[46],5.94 µM
same,GI50,[47],3.16 µM
same,TGI,[47],11.3 µM
same,GI50,[48],4.88 µM
same,TGI,[48],20.6 µM
same,GI50,[49],2.4 µM
same,TGI,[49],6.18 µM
same,GI50,[50],2.99 µM
same,TGI,[50],11.5 µM
same,GI50,[51],3.52 µM
same,TGI,[51],12.4 µM
same,GI50,[52],2 µM
same,TGI,[52],3.91 µM
same,GI50,[53],1.73 µM
same,TGI,[53],3.25 µM
same,GI50,[54],3.03 µM
same,TGI,[54],9.97 µM
same,GI50,[55],2.1 µM
same,TGI,[55],4.5 µM
same,GI50,[56],1.66 µM
same,TGI,[56],3.12 µM
same,GI50,[57],2.25 µM
same,TGI,[57],7.66 µM
